Four molecules from PMC5619818, “Exploring Lactobacillus reuteri DSM20016 as a biocatalyst for transformation of longer chain 1,2-diols: Limits with microcompartment” (PLoS ONE, 2017) can be followed below.

What is called Km is the substrate concentration at which the rate is half of its maximum.

The target of data set [1] is T1, PduP (coenzyme-A acylating propionaldehyde dehydrogenase) (Limosilactobacillus reuteri, UniProt A5VMA0).
T1 construct: gene Lreu_1735
In words: NADH formation at […] nm. The data set is classed as biochemical. The note with it: NAD+ 5 mM, HS-CoA 0.43 mM, 50 mM potassium phosphate pH 7.0, 1 mM DTT, 30 °C.

The target of data set [2] is T2, PduQ (1,3-propanediol oxidoreductase) (Limosilactobacillus reuteri, UniProt A5VM99).
T2 construct: gene Lreu_1734
T2 sequence (A5VM99 1-373): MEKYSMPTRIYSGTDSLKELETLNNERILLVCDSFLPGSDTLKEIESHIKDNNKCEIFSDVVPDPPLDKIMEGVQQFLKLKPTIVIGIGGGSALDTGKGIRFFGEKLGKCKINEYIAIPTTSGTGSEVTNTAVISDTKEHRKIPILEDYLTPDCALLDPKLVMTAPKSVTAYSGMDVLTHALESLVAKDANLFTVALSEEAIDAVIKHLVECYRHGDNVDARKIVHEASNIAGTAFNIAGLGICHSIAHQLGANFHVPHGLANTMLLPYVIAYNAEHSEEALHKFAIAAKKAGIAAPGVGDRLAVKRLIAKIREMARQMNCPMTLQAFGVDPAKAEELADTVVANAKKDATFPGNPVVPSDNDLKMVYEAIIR
The experiment in a line: NADH oxidation at […] nm. The note with it: NADH 0.2 mM, 50 mM potassium phosphate pH 7.0; aldehyde reduction. The class given is biochemical.

Substrate in the data set “purified protein”: O=CCCO
In words: purified protein. The class given is biochemical, Limosilactobacillus reuteri.

Turning to `CCCCCCCCCC=O` [Decylaldehyde], the Km result in data set [1] and in data set [2] was “Hexanaldehyde (C6)< Octanaldehyde (C8)< Decylaldehyde (C10)” throughout.

In the case of `CCCCCCCC=O` [Octanaldehyde], the Km entry in data set [1] and in data set [2] was “Pentanaldehyde (C5)< Hexanaldehyde (C6)< Octanaldehyde (C8)” throughout.

B1: PduP (coenzyme-A acylating propionaldehyde dehydrogenase) (Limosilactobacillus reuteri subsp. reuteri) (protein)
chain: MQINDIESAVRKILAEELDNASSSSANVAATTDNGHRGIFTNVNDAIAAAKAAQEIYRDKPIAVRQQVIDAIKEGFRPYIEKMAKDIKEETGMGTVEAKIAKLNNALYNTPGPEILEPVVENGDGGMVMYERLPYGVIGAVGPSTNPSETVIANAIMMLAGGNTLYFGAHPGAKNVTRWTIEKMNDFIADATGLHNLVVSIETPTIESVQQMMKHPDIAMLAVTGGPAVVHQAMTSGKKAVGAGPGNPPAMVDATADIDLAAHNIITSASFDNDILCTAEKEVVAESSIKDELIRKMQDEGAFVVNREQADKLADMCIQENGAPDRKFVGKDATYILDQANIPYTGHPVEIICELPKEHPLVMTEMLMPILPVVSCPTFDDVLKTAVEVEKGNHHTATIHSNNLKHINNAAHRMQCSIFVVNGPSYVGTGVADNGAHSGASALTIATPTGEGTCTARTFTRRVRLNSPQGFSVRNWY
Consider B1, for which the Km in the data set “purified protein” (NAD+ 5 mM, HS-CoA 0.43 mM, 50 mM potassium phosphate pH 7.0, 1 mM DTT, 30 °C) was 10.1 mM.

B2: PduQ (1,3-propanediol oxidoreductase) (Limosilactobacillus reuteri subsp. reuteri) (protein)
chain: T2 sequence (A5VM99 1-373)
As for B2, in the data set “purified protein” (NADH 0.2 mM, 50 mM potassium phosphate pH 7.0, aldehyde reduction), the Km is given as 28.7 mM.
